# Results: US20220064260A1, “ISOLATED MHC-DERIVED HUMAN PEPTIDES AND USES THEREOF FOR STIMULATING AND ACTIVATING THE SUPPRESSIVE FUNCTION OF CD8+CD45RCLOW TREGS” (INSERM (INSTITUT NATIONAL DE LA SANTÉ ET DE LA RECHERCHE …, priority 2018, published 2022)
# Experiments:
# CD8+CD45RClow Tregs [1] = test: Peptide stimulation assay (CD8+CD45RClow Treg activation by CD25 and CD69 expression); format: cell-based, human; conditions: 5-days culture, syngeneic CD8+CD45RClow Tregs and autologous HLA-A2+ pDCs, IL-2 and CpG ODN, peptide 120 μg/ml, versus control peptide
# Procedure: Peptide Stimulation Assay
# CD8^+ CD45RC^low Treg cells and autologous pDCs from the same healthy HLA-A2^+ donor were co-cultured in serum-free Texmacs medium (Miltenyi Biotec) supplemented with IL-2 (25 U/ml, Proleukin, Novartis), CpG ODN 2006 (0.5 μM) and the different synthesized peptides (120 μg/ml) at a ratio 4:1 of Tregs:pDCs for 5 days. CD8^+CD45RC^low Treg activation was analyzed based on expression of CD69 and CD25 markers. As negative control and in order to normalize the results, a negative peptide was used (ALIAPVHAV). Dapi was used as viability marker. As a positive control, CD8^+ CD45RC^low Tregs were stimulated with anti-CD3 (OKT3, 1 μg/ml) and anti-CD28 mAbs (clone: CD28.2; 1 μg/ml). Results were analyzed using the FACS Canto II cytometer (BD Biosciences) and Flowjo software (Tree Star, Inc. USA, version 10).
# For the peptide activation test, a non-parametric Wilcoxon signed-rank test, comparing column median to a hypothetical value of 1.0, was done. Analyses were made with GraphPad Prism 7 software (GraphPad).
# Four 16aa peptides were designed from four random human MHC class II alleles based on the sequences of the Du51 peptide (NREEYARFDSDVGEYR) and the overlapping 12-mer peptide Bu31-10 (YLRYDSDVGEYR) both bearing the SDVGEYR motif at C-term end (FIG. 1): Hpep1 (NQEESVRFDSDVGEFR-SEQ ID NO: 1), Hpep2 (NREEYARFDSDVGEFR-SEQ ID NO: 2), Hpep3 (NREEYARFDSDVGVYR-SEQ ID NO: 3) and Hpep4 (NREEYVRFDSDVGEYR-SEQ ID NO: 4). We individually tested these peptides differing at positions 2, 5, 6, 14 or 15 in a 5-days culture assay using and syngeneic CD8^+CD45RC^low Tregs and autologous HLA-A2^+ pDCs from the same individuals in presence of interleukin-2 (IL-2) and CpG oligodeoxynucleotides (or CpG ODN) in serum free Texmacs medium (FIG. 2). […] These three peptides share the conserved SDVGE-X-R (SEQ ID NO: 13) 7aa motif while Hpep3 has in addition a valine (V) in place of the glutamic acid (E) at position 14 of the peptide, probably impacting TCR recognition.
# CD4+CD25- T cells = test: Suppression assay (proliferation of CFSE-labeled CD4+CD25- Teffs stimulated with allogeneic APCs); format: cell-based, human; conditions: Tregs expanded 14 days, co-cultured 5 days at 1:1:1 with syngeneic CD4+CD25- T cells and pooled allogeneic APCs; compared to fresh Tregs
# Procedure: CFSE-labeled CD4^+ CD25^− Teffs and CD8^+ CD45RC^low Tregs from the same healthy volunteer (HLA-A2^+) were co-cultured with a pool of allogeneic APCs from 3 different healthy donors (HLA-A2^−) in RPMI1640 medium supplemented with 5% human AB serum. Culture was done at 1:1:1 ratio (where 1=5×10^4 cells/well) for 5 days in triplicate in a V-bottom 96 well plate. Proliferation of CD4^+CD25^− responder T cells was analyzed by flow cytometry (FACS Canto II BD Biosciences TM) by gating on CD3^+CD4^+ living cells (DAPI negative) and using Flowjo software (Tree Star, Inc. USA, version 10).
# CD8+CD45RClow Tregs [2] = test: Expansion in vitro of human CD8+CD45RClow Tregs; format: cell-based; conditions: 14 days culture with autologous APCs, IL-2, IL-15 and CpG ODN, versus day 0
# Procedure: Expansion In Vitro of Human CD8^+CD45RC^low Tregs
# 5×10^5 CD8^+CD45RC^low Tregs and 2×10^6 autologous APCs from HLA-A2^+ healthy donors were seeded in a 24 well plate in Texmacs Medium (Miltenyi Biotec), supplemented with penicillin (100 U/ml), streptomycin (100 μg/ml), rhlL-2 (1000 U/ml, Proleukin, Novartis), rhIL-15 (10 ng/ml, Miltenyi Biotec), CpG (0.5 μM), and the different peptides (120 μg/ml) derived from HLA-II molecule (GenScript). As negative control, a negative irrelevant peptide (ALIAPVHAV) was used. As a positive control, CD8^+CD45RC^low Tregs were stimulated with plate-coated anti-CD3 (clone: OKT3, 1 μg/ml) mAb and soluble anti-CD28 mAb (clone: CD28.2; 1 μg/ml). At day 7, Tregs were counted and re-expanded. Cytokines were freshly added twice a week. Finally, at day 14, cells were used for experiments.
# To determine whether CD8^+ CD45RC^low Tregs could be expanded using this MHC-II derived peptide, an expansion protocol was set up using sorted CD8^+CD45RC^low/− Tregs and APCs from the same individual with the Hpep2 peptide in presence of IL-2, IL-15 and CpG ODN and compared to a polyclonal stimulation (anti-CD3/28) in similar conditions (FIG. 4).
# CD8+CD45RClow Tregs [3] = test: Extracellular and intracellular stainings of expanded Tregs (flow cytometry); format: cell-based, human; conditions: 14 days expansion, Hpep2 versus anti-CD3/28 expanded Tregs
# Procedure: Extracellular and Intracellular Stainings
# For the analysis of GITR (clone: DT5D3, Miltenyi Biotec), Foxp3 (clone:259D/C7, BD Biosciences), IL-10 (clone: JES3-9D7 , BD Biosciences), IL-34 (clone: IC5265P, R&D), TGFβ1 (clone: TW4-9E7, BD Biosciences) and IFNγ (clone: B27, BD Biosciences), CD8^+CD45RC^low Treg cells were stimulated with PMA (50 ng/ml) and ionomycin (1 μg/ml) for 5 h in presence of Brefeldin A (10 μg/ml) for the last 4 hours in Texmacs medium (Miltenyi Biotec). In order to select viable cells, Fixable Viability Dye eF506 (ThermoFisher Scientific) was used as viability marker. Fc receptors were blocked before staining (BD Biosciences) and cells were permeabilized with Fix/Perm kit (Ebiociences) for intracellular staining Cell phenotype was analyzed by flow cytometry using the LSR II (BD Biosciences, Mountain View, Calif.) and Flowjo software (Tree Star. Inc. USA, version 10).
# allograft = conditions: rats treated with the peptide only (WO2015/150492); cited from earlier work
Sequence,CD25 expression on Tregs (CD8+CD45RClow Tregs [1]),CD69 expression on Tregs (CD8+CD45RClow Tregs [1]),suppressive activity of expanded CD8+CD45RClow Tregs on an allogeneic immune response (CD4+CD25- T cells),total Treg fold expansion (CD8+CD45RClow Tregs [2]) [fold],"level of expression of Foxp3, GITR, IL-10, IFNγ and IL-34 in expanded CD8+CD45RClow Tregs (CD8+CD45RClow Tregs [3])",allograft tolerance in recipient rats (allograft)
"NQEESVRFDSDVGEFR (listed as Homo sapiens) [Hpep1, 16aa peptide designed from a human MHC class II allele]",upregulated,upregulated,,,,
"NREEYARFDSDVGEFR (listed as Homo sapiens) [Hpep2, 16aa peptide designed from a human MHC class II allele]",upregulated,upregulated,efficient at suppressing an allogeneic immune response,10,no significant differences,
"NREEYARFDSDVGEYR [Du51, dominant MHC class II-derived antigen recognized by TCR-biased CD8+ Tregs in rats (WO2015/150492)]",,,,,,donor-specific allograft tolerance induction
"NREEYVRFDSDVGEYR (listed as Homo sapiens) [Hpep4, 16aa peptide designed from a human MHC class II allele]",upregulated,upregulated,,,,
